Holding throughout (format): functional
Test [1] has as its system Escherichia coli. Put plainly: Antibacterial activity against Escherichia coli DH5[alpha] at 5 to 20 ug/ml after 24 hr by paper disk diffusion method.
For test [2], the system named is Fusarium verticillioides. Put plainly: Antifungal activity against Fusarium verticillioides NCIM 1276 after 24 hr by paper disk diffusion method. The following applies: NCIM 1276, 24 h. Background: A growth-free zone around the sample is the usual read-out of agar diffusion tests.
Test [3] has as its system Trichoderma. Put plainly: Antifungal activity against Trichoderma sp. ATCC 5248 at 5 to 20 ug/ml after 24 hr by paper disk diffusion method.
Test [4] relates to Saccharomyces cerevisiae. Put plainly: Antifungal activity against Saccharomyces cerevisiae 180 at 5 to 20 ug/ml after 24 hr by paper disk diffusion method.
In test [5] the test system is Aspergillus niger. Put plainly: Antifungal activity against Aspergillus niger ATCC 4578 after 24 hr by paper disk diffusion method. As to conditions: ATCC 4578, 24 h.
For test [6], the system named is Fusarium verticillioides. Put plainly: Antifungal activity against Fusarium verticillioides NCIM 1276 at 5 to 20 ug/ml after 24 hr by paper disk diffusion method.
For test [7], the system named is Saccharomyces cerevisiae. Put plainly: Antifungal activity against Saccharomyces cerevisiae 180 after 24 hr by paper disk diffusion method. As to conditions: Saccharomyces cerevisiae, 180, 24 h.
Test [8] concerns Trichoderma. Put plainly: Antifungal activity against Trichoderma sp. ATCC 5248 after 24 hr by paper disk diffusion method. As to conditions: ATCC 5248, 24 h.
The test system of test [9] is Aspergillus niger. Put plainly: Antifungal activity against Aspergillus niger ATCC 4578 at 5 to 20 ug/ml after 24 hr by paper disk diffusion method.
The subject of test [10] is Pseudomonas aeruginosa. Put plainly: Antibacterial activity against Pseudomonas aeruginosa MTCC 3363 5 to 20 ug/ml after 24 hr by paper disk diffusion method.
The test system of test [11] is Pseudomonas fluorescens. Put plainly: Antibacterial activity against Pseudomonas fluorescens ATCC 3458 5 to 20 ug/ml after 24 hr by paper disk diffusion method.
Test [12] has as its system Bacillus subtilis. Put plainly: Antibacterial activity against Bacillus subtilis ATCC 6633 after 24 hr by paper disk diffusion method. The following applies: ATCC 6633, 24 h.
Test [13] deals with Pseudomonas aeruginosa. Put plainly: Antibacterial activity against Pseudomonas aeruginosa MTCC 3363 after 24 hr by paper disk diffusion method. As to conditions: MTCC 3363, 24 h.
For test [14], the system named is Escherichia coli. Put plainly: Antibacterial activity against Escherichia coli DH5[alpha] after 24 hr by paper disk diffusion method.
Test [15] relates to Pseudomonas fluorescens. Put plainly: Antibacterial activity against Pseudomonas fluorescens ATCC 3458 after 24 hr by paper disk diffusion method. The following applies: ATCC 3458, 24 h.
Test [16] relates to Bacillus subtilis. Put plainly: Antibacterial activity against Bacillus subtilis ATCC 6633 5 to 20 ug/ml after 24 hr by paper disk diffusion method.

Values after ≈ are worked out from the molar mass of the structure shown.

By MIC is commonly meant the lowest concentration found to suppress growth. A higher MIC goes with a need for much substance.

Turning to `Nn1c(S)nnc1-c1ccccc1`, the “diameter of the inhibition zone (DIZ)” value with Escherichia coli [1], with Trichoderma [3], in the test on Saccharomyces cerevisiae [4], with Fusarium verticillioides [6], with Aspergillus niger [9] and with Pseudomonas aeruginosa [10] was 16 mm in each case. In addition, the “diameter of the inhibition zone (DIZ)” value in the test on Pseudomonas fluorescens [11] and in the test with Bacillus subtilis [16] was 16 mm throughout. Moreover, the MIC with Fusarium verticillioides [2], in the test on Aspergillus niger [5], with Saccharomyces cerevisiae [7], in the test with Trichoderma [8], in the test with Bacillus subtilis [12] and with Pseudomonas aeruginosa [13] was 12.5 µg/mL (≈ 65 µM) throughout. The MIC with Escherichia coli [14] and in the test on Pseudomonas fluorescens [15] was 12.5 µg/mL (≈ 65 µM) throughout.
For `Nn1c(Sc2ccc(S(=O)(=O)Cl)cc2)nnc1-c1ccccc1`, the “diameter of the inhibition zone (DIZ)” value in the test with Escherichia coli [1] is reported as below 10 mm; in the test with Trichoderma [3], below 12 mm; in the test on Saccharomyces cerevisiae [4] it was below 12 mm; in the test on Fusarium verticillioides [6] it was below 12 mm; in the test on Aspergillus niger [9], below 12 mm; in the test with Pseudomonas aeruginosa [10], below 10 mm. Further, the “diameter of the inhibition zone (DIZ)” value in the test on Pseudomonas fluorescens [11] and in the test on Bacillus subtilis [16] was below 10 mm each time. The minimum inhibitory concentration (MIC) in the test with Fusarium verticillioides [2], with Aspergillus niger [5], against Saccharomyces cerevisiae [7], in the test on Trichoderma [8], in the test with Bacillus subtilis [12] and in the test with Pseudomonas aeruginosa [13] was 15 µg/mL (≈ 40.9 µM) in each case. Moreover, the MIC in the test with Escherichia coli [14] and against Pseudomonas fluorescens [15] was 15 µg/mL (≈ 40.9 µM) in each case.
In the case of `Nn1c(Sc2ccc(Br)cc2)nnc1-c1ccccc1`, the “diameter of the inhibition zone (DIZ)” value with Escherichia coli [1], in the test on Trichoderma [3], in the test on Saccharomyces cerevisiae [4], in the test with Fusarium verticillioides [6], with Aspergillus niger [9] and with Pseudomonas aeruginosa [10] was 16 mm throughout. The “diameter of the inhibition zone (DIZ)” value in the test on Pseudomonas fluorescens [11] and in the test on Bacillus subtilis [16] was 16 mm in each case. Also, the MIC against Fusarium verticillioides [2], with Aspergillus niger [5], in the test with Saccharomyces cerevisiae [7], in the test with Trichoderma [8], with Bacillus subtilis [12] and against Pseudomonas aeruginosa [13] was 10 µg/mL (≈ 28.8 µM) each time. The MIC in the test on Escherichia coli [14] and in the test on Pseudomonas fluorescens [15] was 10 µg/mL (≈ 28.8 µM) throughout.
Take `Nn1c(Sc2ccc(C(Cl)(Cl)Cl)cc2)nnc1-c1ccccc1`: the “diameter of the inhibition zone (DIZ)” value was determined as 14 mm in the test with Escherichia coli [1]; 22 mm in the test with Trichoderma [3]; 16 mm in the test with Saccharomyces cerevisiae [4]; 18 mm in the test with Fusarium verticillioides [6]; 14 mm with Aspergillus niger [9]; 16 mm in the test with Pseudomonas aeruginosa [10]. Besides, the “diameter of the inhibition zone (DIZ)” value with Pseudomonas fluorescens [11] and in the test on Bacillus subtilis [16] was 14 mm each time. The MIC against Fusarium verticillioides [2], in the test on Aspergillus niger [5], against Saccharomyces cerevisiae [7], in the test with Trichoderma [8], in the test on Bacillus subtilis [12] and against Pseudomonas aeruginosa [13] was 5 µg/mL (≈ 13 µM) each time. Besides, the MIC with Escherichia coli [14] and in the test with Pseudomonas fluorescens [15] was 5 µg/mL (≈ 13 µM) throughout.
As to `Nn1c(Sc2ccc(Cl)cc2)nnc1-c1ccccc1`, the “diameter of the inhibition zone (DIZ)” value in the test on Escherichia coli [1], in the test with Trichoderma [3], in the test on Saccharomyces cerevisiae [4], in the test with Fusarium verticillioides [6], in the test on Aspergillus niger [9] and with Pseudomonas aeruginosa [10] was 16 mm each time. Further, the “diameter of the inhibition zone (DIZ)” value with Pseudomonas fluorescens [11] and in the test on Bacillus subtilis [16] was 16 mm in each case. For the same compound, the MIC against Fusarium verticillioides [2], against Aspergillus niger [5], against Saccharomyces cerevisiae [7], against Trichoderma [8], with Bacillus subtilis [12] and in the test on Pseudomonas aeruginosa [13] was 10 µg/mL (≈ 33 µM) in each case. The MIC against Escherichia coli [14] and in the test on Pseudomonas fluorescens [15] was 10 µg/mL (≈ 33 µM) throughout.
On to `Nn1c(S)nnc1-c1ccccc1O`, for which the “diameter of the inhibition zone (DIZ)” value in the test with Escherichia coli [1], in the test with Trichoderma [3], in the test with Saccharomyces cerevisiae [4], in the test on Fusarium verticillioides [6], in the test with Aspergillus niger [9] and in the test with Pseudomonas aeruginosa [10] was 16 mm in each case. Moreover, the “diameter of the inhibition zone (DIZ)” value in the test on Pseudomonas fluorescens [11] and in the test with Bacillus subtilis [16] was 16 mm each time. For the same compound, the MIC in the test on Fusarium verticillioides [2], with Aspergillus niger [5], against Saccharomyces cerevisiae [7], against Trichoderma [8], with Bacillus subtilis [12] and in the test with Pseudomonas aeruginosa [13] was 12.5 µg/mL (≈ 60 µM) each time. The MIC against Escherichia coli [14] and against Pseudomonas fluorescens [15] was 12.5 µg/mL (≈ 60 µM) each time.
Consider `CC(=O)Nn1c(S)nnc1-c1ccccc1`, for which the “diameter of the inhibition zone (DIZ)” value in the test with Escherichia coli [1] is recorded as below 10 mm; in the test on Trichoderma [3], below 12 mm; in the test with Saccharomyces cerevisiae [4], below 12 mm; in the test with Fusarium verticillioides [6] it was below 12 mm; in the test on Aspergillus niger [9] it was below 12 mm; in the test with Pseudomonas aeruginosa [10], below 10 mm. Further, the “diameter of the inhibition zone (DIZ)” value in the test on Pseudomonas fluorescens [11] and with Bacillus subtilis [16] was below 10 mm each time. The MIC against Fusarium verticillioides [2], against Aspergillus niger [5], in the test with Saccharomyces cerevisiae [7], in the test on Trichoderma [8], with Bacillus subtilis [12] and against Pseudomonas aeruginosa [13] was 15 µg/mL (≈ 64 µM) throughout. Further, the MIC in the test on Escherichia coli [14] and with Pseudomonas fluorescens [15] was 15 µg/mL (≈ 64 µM) in each case.
In the case of `Nn1c(Sc2ccc([N+](=O)[O-])cc2[N+](=O)[O-])nnc1-c1ccccc1`, the “diameter of the inhibition zone (DIZ)” value in the test on Escherichia coli [1] is recorded as below 10 mm; with Trichoderma [3] it was below 12 mm; with Saccharomyces cerevisiae [4], below 12 mm; with Fusarium verticillioides [6] it was below 12 mm; in the test with Aspergillus niger [9] it was below 12 mm; with Pseudomonas aeruginosa [10], below 10 mm. The “diameter of the inhibition zone (DIZ)” value in the test on Pseudomonas fluorescens [11] and with Bacillus subtilis [16] was below 10 mm in each case. In addition, the MIC against Fusarium verticillioides [2], in the test with Aspergillus niger [5], in the test with Saccharomyces cerevisiae [7], against Trichoderma [8], with Bacillus subtilis [12] and against Pseudomonas aeruginosa [13] was 15 µg/mL (≈ 41.9 µM) throughout. Moreover, the MIC in the test with Escherichia coli [14] and with Pseudomonas fluorescens [15] was 15 µg/mL (≈ 41.9 µM) in each case.
In the case of `CO/N=C(\C(=O)N[C@@H]1C(=O)N2C(C(=O)O)=C(CSc3nc(=O)c(O)nn3C)CS[C@H]12)c1csc(N)n1` [CEFTRIAXONE], the “diameter of the inhibition zone (DIZ)” value in the test on Escherichia coli [1] turned out to be 16 mm; with Pseudomonas aeruginosa [10], 18 mm; in the test with Pseudomonas fluorescens [11], 16 mm; with Bacillus subtilis [16], 16 mm. For the same compound, the MIC with Bacillus subtilis [12], with Pseudomonas aeruginosa [13], against Escherichia coli [14] and with Pseudomonas fluorescens [15] was 5 µg/mL (≈ 9.02 µM) each time.
As for `CC(=O)N1CCN(c2ccc(OCC3COC(Cn4ccnc4)(c4ccc(Cl)cc4Cl)O3)cc2)CC1` (centres undefined) [KETOCONAZOLE], the MIC in the test with Fusarium verticillioides [2], in the test with Aspergillus niger [5], against Saccharomyces cerevisiae [7] and in the test with Trichoderma [8] was 5 µg/mL (≈ 9.41 µM) each time. Moreover, the “diameter of the inhibition zone (DIZ)” value worked out at 25 mm in the test on Trichoderma [3], 18 mm in the test on Saccharomyces cerevisiae [4], 20 mm with Fusarium verticillioides [6] and 16 mm in the test on Aspergillus niger [9].
